Holding throughout (assay): DPP-IV Inhibition Screening Assay
Test [1] concerns the target Dipeptidyl peptidase 8 (Homo sapiens, UniProt Q6V1X1). The procedure: (§1) DPP-IV inhibition was measured by DPP-IV inhibitor screening assay kit (Cayman Chemical Company, Item No. 700210) following the manufacturer's instructions. Briefly, solutions of test compounds at varying concentrations were prepared in dimethyl sulfoxide (DMSO) and then diluted into assay buffer. Human recombinant DPP-IV was added to the dilutions and preincubated for 30 min at 37 °C before the reaction was initiated by the addition of fluorogenic substrate solution AMC (Gly-Pro-Aminomethylcoumarin). Human recombinant DPP-8 or DPP-9 was added to the dilutions and preincubated for 10 min at 22 °C before the reaction was initiated by the addition of fluorogenic DPP substrate. The kinetics of the reaction wasmonitored (excitation at 380 nm, emission at 460 nm).

The target of test [2] is Dipeptidyl peptidase 9 (Homo sapiens, UniProt Q86TI2). The procedure:
as §1

For test [3], the target named is Dipeptidyl peptidase 4 [K6R,T557I] (Homo sapiens, UniProt P27487, K6R/T557I). The method, then: as §1
Dipeptidyl peptidase 4 [K6R,T557I], sequence (P27487 whole entry K6R/T557I/D663E): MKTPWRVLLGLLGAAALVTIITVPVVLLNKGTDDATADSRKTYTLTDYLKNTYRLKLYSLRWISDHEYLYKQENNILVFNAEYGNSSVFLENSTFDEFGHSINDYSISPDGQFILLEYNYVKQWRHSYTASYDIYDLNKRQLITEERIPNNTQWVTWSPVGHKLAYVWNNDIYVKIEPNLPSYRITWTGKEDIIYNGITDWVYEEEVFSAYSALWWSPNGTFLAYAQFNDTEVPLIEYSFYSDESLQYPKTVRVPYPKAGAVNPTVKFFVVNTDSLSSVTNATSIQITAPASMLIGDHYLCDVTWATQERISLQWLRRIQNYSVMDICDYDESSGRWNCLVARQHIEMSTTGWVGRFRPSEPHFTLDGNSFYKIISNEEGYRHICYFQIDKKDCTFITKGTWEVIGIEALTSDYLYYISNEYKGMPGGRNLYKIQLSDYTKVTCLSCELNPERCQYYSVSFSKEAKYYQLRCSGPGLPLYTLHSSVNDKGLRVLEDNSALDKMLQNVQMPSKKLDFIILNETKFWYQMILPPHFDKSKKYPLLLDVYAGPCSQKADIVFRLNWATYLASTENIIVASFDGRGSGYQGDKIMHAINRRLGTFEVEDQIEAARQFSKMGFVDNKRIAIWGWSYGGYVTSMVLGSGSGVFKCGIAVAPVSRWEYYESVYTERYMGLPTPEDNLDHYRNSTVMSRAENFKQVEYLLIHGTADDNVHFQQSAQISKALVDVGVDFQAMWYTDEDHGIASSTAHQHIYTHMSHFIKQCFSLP

Dipeptidyl peptidase 9, sequence (Q86TI2 whole entry): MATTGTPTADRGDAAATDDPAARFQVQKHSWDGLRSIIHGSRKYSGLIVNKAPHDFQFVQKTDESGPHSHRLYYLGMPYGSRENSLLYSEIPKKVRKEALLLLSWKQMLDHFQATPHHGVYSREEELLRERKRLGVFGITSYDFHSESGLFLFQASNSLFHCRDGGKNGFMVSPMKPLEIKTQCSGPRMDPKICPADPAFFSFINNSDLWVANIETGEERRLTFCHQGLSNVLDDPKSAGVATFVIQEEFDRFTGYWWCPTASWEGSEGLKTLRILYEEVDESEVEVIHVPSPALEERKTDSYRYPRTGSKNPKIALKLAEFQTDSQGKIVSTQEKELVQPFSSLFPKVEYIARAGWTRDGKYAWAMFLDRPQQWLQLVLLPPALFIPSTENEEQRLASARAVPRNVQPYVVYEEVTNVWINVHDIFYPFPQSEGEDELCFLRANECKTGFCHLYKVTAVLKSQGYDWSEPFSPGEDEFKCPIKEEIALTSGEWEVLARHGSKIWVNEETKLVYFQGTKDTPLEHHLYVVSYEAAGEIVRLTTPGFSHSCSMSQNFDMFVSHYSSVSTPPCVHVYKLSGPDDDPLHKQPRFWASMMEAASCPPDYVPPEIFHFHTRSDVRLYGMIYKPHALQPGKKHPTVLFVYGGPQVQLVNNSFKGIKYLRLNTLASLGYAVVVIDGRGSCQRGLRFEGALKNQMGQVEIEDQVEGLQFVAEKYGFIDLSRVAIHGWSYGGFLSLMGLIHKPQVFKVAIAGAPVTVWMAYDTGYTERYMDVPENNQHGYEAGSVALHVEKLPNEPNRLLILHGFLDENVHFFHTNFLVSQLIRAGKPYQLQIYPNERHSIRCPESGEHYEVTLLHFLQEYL
Dipeptidyl peptidase 8, sequence (Q6V1X1 whole entry): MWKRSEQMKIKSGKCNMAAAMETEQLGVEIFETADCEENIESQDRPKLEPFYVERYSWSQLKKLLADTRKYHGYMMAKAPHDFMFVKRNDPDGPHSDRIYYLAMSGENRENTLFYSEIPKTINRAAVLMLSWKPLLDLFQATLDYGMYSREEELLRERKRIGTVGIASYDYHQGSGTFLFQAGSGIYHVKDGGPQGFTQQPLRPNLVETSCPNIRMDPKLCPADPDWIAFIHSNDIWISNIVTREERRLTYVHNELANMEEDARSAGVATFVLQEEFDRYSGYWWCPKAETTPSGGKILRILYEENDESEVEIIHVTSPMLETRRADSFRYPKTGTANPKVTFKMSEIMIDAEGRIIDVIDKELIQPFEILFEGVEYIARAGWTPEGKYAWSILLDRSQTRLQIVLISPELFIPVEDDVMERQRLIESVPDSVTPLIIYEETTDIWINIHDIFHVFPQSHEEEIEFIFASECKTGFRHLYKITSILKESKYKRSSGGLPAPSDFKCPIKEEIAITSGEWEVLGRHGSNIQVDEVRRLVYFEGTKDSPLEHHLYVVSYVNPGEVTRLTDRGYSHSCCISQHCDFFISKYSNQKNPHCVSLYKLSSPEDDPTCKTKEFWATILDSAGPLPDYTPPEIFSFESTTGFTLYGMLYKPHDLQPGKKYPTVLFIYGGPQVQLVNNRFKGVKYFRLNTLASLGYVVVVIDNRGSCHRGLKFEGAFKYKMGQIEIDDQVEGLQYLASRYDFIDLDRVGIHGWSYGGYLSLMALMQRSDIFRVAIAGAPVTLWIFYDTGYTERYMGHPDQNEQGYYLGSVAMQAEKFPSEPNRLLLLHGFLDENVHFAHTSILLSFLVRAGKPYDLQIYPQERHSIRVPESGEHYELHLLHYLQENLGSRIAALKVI

On to `CC(C)=CCn1c(N2CCC[C@H](N)C2)nc2c1c(=O)n(Cc1nc3ccccc3s1)c(=O)n2C` [(S)-43], for which the IC50 in test [1] is more than 100 µM; in test [2], more than 100 µM; in test [3], 0.0369 µM.

Regarding `CC(C)=CCn1c(N2CCC[C@@H](N)C2)nc2c1c(=O)n(Cc1nc3ccccc3s1)c(=O)n2C` [(R)-43], the 50% inhibitory concentration (IC50) was more than 100 µM in test [1], more than 100 µM in test [2] and 0.0362 µM in test [3].

For the compound `CC(C)=CCn1c(N2CCC[C@H](N)C2)nc2c1c(=O)n(Cc1ccccc1C#N)c(=O)n2C` [(S)-40], the 50% inhibitory concentration (IC50) in test [1] is more than 100 µM; in test [2], more than 100 µM; in test [3] it was 0.108 µM.

`CC(C)=CCn1c(N2CCC[C@@H](N)C2)nc2c1c(=O)n(Cc1ccccc1C#N)c(=O)n2C` [(R)-40]: the half-maximal inhibitory concentration (IC50) in test [1] was more than 100 µM; in test [2], more than 100 µM; in test [3] it was 0.0235 µM.

The IC50 is the concentration at which inhibition is half-maximal. Low values mean inhibition by little substance, high ones a need for much substance.

Values taken from BindingDB's records for doi:10.1111/cbdd.12663 (West China Hospital, 2016).
